Read-outs that look alike come from different tables or passages of the source.
Assays:
[1] = target: T1, human GRK5WT (Homo sapiens, UniProt P34947); assay: GRK kinase inhibition assay ([γ-32P]-ATP phosphorylation of tubulin or Rho*); format: biochemical; conditions: for change in inhibition potency caused by K3Cit: GRK5 phosphorylation of tubulin and Rho*
T1 construct: human GRK5WT or GRK5D311N (residues 1–590 followed by a hexahistidine tag); hexahistidine (C); made in house; host or cells: E. coli Rosetta (DE3)
Description: GRK inhibition assays were performed in 20 mM Hepes (pH 7.0), 2 mM MgCl2, 0.025% n-dodecyl-β-D-maltoside with 50 nM human GRK5WT as purified previously. […] A range of salt concentrations was added 30 s prior to 5 min reactions initiated by exposing samples to light followed by addition of 5 μM ATP supplemented with radioactive [γ-^32P]-ATP at 60 Ci/mmol (PerkinElmer Life Sciences) at room temperature. […] Reactions were quenched with 4X SDS loading buffer, separated in SDS-PAGE, dried, and read by phosphorimaging and then quantified via a Personal Molecular Imager and Quantity One 1-D Analysis Software. […] At least three replicates were obtained to calculate the mean and standard deviation of IC50 values. See Figure S4 for representative raw and processed data.

[2] = target: T2, GRK5 (Homo sapiens, UniProt P34947); assay: Differential scanning fluorimetry thermal shift assay; format: binding; conditions: for increase of Tm of GRK5 upon ligand binding: relative to unliganded GRK5, ligand 5 mM, 2 μM GRK5; for effect of salt on Tm of ATP·Mg2+-bound GRK5 / effect of salt on Tm of GRK5: increasing salt concentrations; for effect of salt on Tm of GRK5: no ligand
T2 construct: human GRK5WT or GRK5D311N (residues 1–590 followed by a hexahistidine tag); hexahistidine (C); made in house; host or cells: E. coli Rosetta (DE3)
Description: Samples were mixed with Protein Thermal Shift dye to measure unfolding as a function of temperature. The Tm values were subtracted by the Tm of GRK5 in the same condition without the addition of salt to obtain ΔTm. Error bars correspond to SD (box) from three or more replicates (circles). […] Orange corresponds to GRK5 with Sgv and pink with AMP in buffer alone (20 mM Hepes [pH 7.2], 2 mM MgCl2). A one-tailed t test was used to determine significance (ns: p > 0.05, ∗p ≤ 0.05, ∗∗p ≤ 0.01, ∗∗∗p ≤ 0.001, and ∗∗∗∗p ≤ 0.0001). GRK, G protein–coupled receptor kinase; ns, not significant; Sgv, sangivamycin.
Full-length WT GRK5, GRK2, or GRK6 at a final concentration of 2 μM in the absence or the presence of different ligands were mixed with the Protein Thermal Shift Dye at a final concentration of 1X in buffer containing 20 mM Hepes (pH 7.2), 2 mM MgCl2, and 1 mM TCEP in addition to different concentrations of salts. The melting points were measured using a QuantStudio5 Real-Time PCR System in a 384-well transparent plate with a final reaction volume of 10 μl per well. […] Ligands including ATP, AMP–PNP, ADP, AMP, and Sgv were added at a final concentration of 5 mM. Readouts were measured and analyzed with Protein Thermal Shift Software to obtain Boltzmann Tm values. At least three replicates of individual runs from the same preparation of protein were performed to obtain the mean and standard deviation of Tm values.

[3] = target: T3, GRK2 (Homo sapiens, UniProt P25098, S670A); assay: GRK kinase inhibition assay ([γ-32P]-ATP phosphorylation of tubulin); format: biochemical; conditions: substrate tubulin; for IC50: mean ± SD
T3 construct: Full-length WT GRK5, GRK2, or GRK6 at a final concentration of 2 μM; made in house; host or cells: Sf9 insect cells
T3 sequence (P25098 1-689 S670A): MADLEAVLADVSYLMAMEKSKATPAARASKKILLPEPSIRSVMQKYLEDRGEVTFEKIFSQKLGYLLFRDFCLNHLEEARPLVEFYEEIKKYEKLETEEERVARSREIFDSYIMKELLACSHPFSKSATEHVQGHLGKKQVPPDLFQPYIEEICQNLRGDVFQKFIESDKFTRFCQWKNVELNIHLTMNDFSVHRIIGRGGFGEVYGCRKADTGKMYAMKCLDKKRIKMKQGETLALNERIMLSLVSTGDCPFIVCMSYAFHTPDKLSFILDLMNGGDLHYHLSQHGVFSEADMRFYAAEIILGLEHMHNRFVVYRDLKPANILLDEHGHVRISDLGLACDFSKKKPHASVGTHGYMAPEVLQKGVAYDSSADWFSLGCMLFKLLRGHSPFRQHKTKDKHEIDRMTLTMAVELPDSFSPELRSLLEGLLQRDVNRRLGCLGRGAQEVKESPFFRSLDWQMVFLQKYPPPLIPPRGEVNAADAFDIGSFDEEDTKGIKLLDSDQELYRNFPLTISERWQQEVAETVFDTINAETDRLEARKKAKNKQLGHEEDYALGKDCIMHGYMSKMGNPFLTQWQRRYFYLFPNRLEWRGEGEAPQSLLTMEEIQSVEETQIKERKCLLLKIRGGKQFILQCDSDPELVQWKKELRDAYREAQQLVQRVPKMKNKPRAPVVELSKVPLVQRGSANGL
Description: Following the protocol in Ref. ([19]), pMAL-vector plasmids bearing DNA encoding human GRK5WT or GRK5D311N (residues 1–590 followed by a hexahistidine tag) were transfected into E. coli Rosetta (DE3) and induced with isopropyl β-D-1-thiogalactopyranoside. Cells lysed using an Emulsiflex-C3 were treated with DNase I and 1 mM MgCl2 at room temperature for 10 min before centrifugation at 40,000g. GRK5 in the soluble fraction was then loaded onto a Ni^2+–NTA column for metal-affinity purification. Eluted GRK5 fractions were then loaded onto a tandem HiTrap Q HP-HiTrap SP HP column to capture impurities in the Q HP column, and GRK5 was eluted from the SP column using an NaCl concentration gradient from 100 to 600 mM. […] Purified GRK5 was used directly in crystallization or flash-frozen with liquid nitrogen and stored at −80 °C for later usage. Human GRK2S670A and GRK6FL_pal(−) are expressed in Sf9 insect cells and purified as described previously ([26], [31]). The S670A mutation in GRK2 eliminates a heterogenous mitogen-activated kinase phosphorylation site, and GRK6FL_pal(−) was used to remove palmitoylation sites in order to make expression and purification easier.
GRK inhibition assays were performed in 20 mM Hepes (pH 7.0), 2 mM MgCl2, 0.025% n-dodecyl-β-D-maltoside with 50 nM human GRK5WT as purified previously. […] A range of salt concentrations was added 30 s prior to 5 min reactions initiated by exposing samples to light followed by addition of 5 μM ATP supplemented with radioactive [γ-^32P]-ATP at 60 Ci/mmol (PerkinElmer Life Sciences) at room temperature. […] Reactions were quenched with 4X SDS loading buffer, separated in SDS-PAGE, dried, and read by phosphorimaging and then quantified via a Personal Molecular Imager and Quantity One 1-D Analysis Software. Data were analyzed via GraphPad Prism (GraphPad Software, Inc), and three-parameter dose-dependent curves (Hill coefficient = −1) plotting phosphate transferred against inhibitor concentration were used for the calculation of IC50 values. At least three replicates were obtained to calculate the mean and standard deviation of IC50 values. See Figure S4 for representative raw and processed data.

[4] = target: T4, GRK6 (Homo sapiens, UniProt P43250, C561S/C562S/C565S); assay: as above; format: biochemical; conditions: substrate tubulin; for IC50: mean ± SD
T4 construct: Full-length WT GRK5, GRK2, or GRK6 at a final concentration of 2 μM; made in house; host or cells: Sf9 insect cells

[5] = IC50 no K3Cit vs with 2 mM K3Cit, substrate tubulin
[6] = IC50 no K3Cit vs with 6 mM K3Cit, substrate Rho* in ROS
[7] = read-out: IC50 (no K3Cit), substrate Rho* in ROS, without K3Cit, mean and SD
[8] = read-out: IC50 (no K3Cit), substrate tubulin, without K3Cit, mean and SD

T4 sequence (P43250 whole entry C561S/C562S/C565S): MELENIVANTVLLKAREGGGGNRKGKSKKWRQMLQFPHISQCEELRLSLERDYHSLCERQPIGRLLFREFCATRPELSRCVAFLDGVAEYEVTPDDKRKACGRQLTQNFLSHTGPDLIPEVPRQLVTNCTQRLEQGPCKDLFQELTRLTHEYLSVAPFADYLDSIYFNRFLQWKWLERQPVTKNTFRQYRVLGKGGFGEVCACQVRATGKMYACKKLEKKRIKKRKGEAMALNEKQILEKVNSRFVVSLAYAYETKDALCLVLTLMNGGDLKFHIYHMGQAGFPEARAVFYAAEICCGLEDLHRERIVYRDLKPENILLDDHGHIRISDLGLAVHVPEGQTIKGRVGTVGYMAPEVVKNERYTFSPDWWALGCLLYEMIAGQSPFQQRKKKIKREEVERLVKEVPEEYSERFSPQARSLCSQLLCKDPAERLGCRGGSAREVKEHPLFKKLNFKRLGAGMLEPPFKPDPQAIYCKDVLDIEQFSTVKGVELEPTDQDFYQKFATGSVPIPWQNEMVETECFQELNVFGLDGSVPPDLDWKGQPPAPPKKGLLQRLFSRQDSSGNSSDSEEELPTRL
T2 sequence (P34947 whole entry, the tested form may be a part): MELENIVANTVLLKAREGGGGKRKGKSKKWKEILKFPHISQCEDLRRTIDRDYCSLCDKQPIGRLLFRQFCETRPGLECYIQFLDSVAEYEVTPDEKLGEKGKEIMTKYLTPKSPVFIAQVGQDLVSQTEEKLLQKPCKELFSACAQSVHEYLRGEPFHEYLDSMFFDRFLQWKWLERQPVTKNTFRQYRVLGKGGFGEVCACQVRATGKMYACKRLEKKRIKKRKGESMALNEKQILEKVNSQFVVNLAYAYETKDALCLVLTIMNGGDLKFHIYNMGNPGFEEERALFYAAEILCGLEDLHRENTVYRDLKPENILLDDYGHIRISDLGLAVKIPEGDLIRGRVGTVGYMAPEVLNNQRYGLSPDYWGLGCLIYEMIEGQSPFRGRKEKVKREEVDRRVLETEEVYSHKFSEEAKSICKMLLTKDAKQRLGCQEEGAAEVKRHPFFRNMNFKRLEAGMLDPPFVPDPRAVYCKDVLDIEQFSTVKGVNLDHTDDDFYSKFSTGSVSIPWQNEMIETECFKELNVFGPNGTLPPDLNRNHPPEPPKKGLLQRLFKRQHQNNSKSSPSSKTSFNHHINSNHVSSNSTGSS
T1 sequence (P34947 whole entry, the tested form may be a part): as above

Row | SMILES | Fold-change [1, 5] | Fold-change [1, 6] | increase of Tm of GRK5 upon ligand binding [2] | GRK2 (Hill slope) [3] | IC50 [3] | effect of salt on Tm of ATP·Mg2+-bound GRK5 ([2]; in the presence of ATP·Mg2+) | effect of salt on Tm of GRK5 [2] | GRK6 (Hill slope) [4] | IC50 [4] | further results
1 | Nc1ncnc2c1ncn2[C@@H]1O[C@H](COP(=O)(O)O)[C@@H](O)[C@H]1O [AMP] | 1.5 | 2 | does not stabilize GRK5 as much as Sgv | – | – | – | – | – | – | change in inhibition potency caused by K3Cit [1]: did not cause changes; IC50 [1, 7]: 1000 ± 100 µM; IC50 [1, 8]: 700 ± 200 µM
2 | Nc1ncnc2c1ncn2[C@@H]1O[C@H](COP(=O)(O)OP(=O)(O)O)[C@@H](O)[C@H]1O [ADP] | 3 | 1.5 | – | – | – | – | – | – | – | change in inhibition potency caused by K3Cit [1]: did not cause changes; IC50 [1, 7]: 56 ± 6 µM; IC50 [1, 8]: 28 ± 1 µM
3 | Nc1ncnc2c1ncn2[C@@H]1O[C@H](COP(=O)(O)OP(=O)([O-])OP(=O)([O-])O)[C@@H](O)[C@H]1O.[Mg+2] [ATP·Mg^2+] | – | – | 9 °C | – | – | – | – | – | – | –
4 | [Cl-].[K+] [KCl] | – | – | – | −1.6 | 20000 ± 2000 µM | decreased | did not increase GRK5 stability at any concentration | −2.3 | 14000 ± 4000 µM | lower potency than the corresponding citrate salts ([1]; GRK5, tubulin as the substrate): about 35 fold; GRK5 (Hill slope) ([1]; substrate Rho* (LMNG)): −1.6; IC50 ([1]; substrate Rho* (LMNG), mean ± SD, read-out: GRK5 IC50): 11000 ± 2000 µM; GRK5 (Hill slope) ([1]; substrate Rho* (ROS)): −1.9; IC50 ([1]; substrate Rho* (ROS), mean ± SD, read-out: GRK5 IC50): 18000 ± 10000 µM; GRK5 (Hill slope) ([1]; substrate tubulin): −1.7; IC50 ([1]; substrate tubulin, mean ± SD, read-out: GRK5 IC50): 55000 ± 6000 µM
5 | NC(=O)c1cn([C@@H]2O[C@H](CO)[C@@H](O)[C@H]2O)c2ncnc(N)c12 [Sgv, sangivamycin] | 8 | 6 | 5 °C | – | – | – | – | – | – | reduction of the apparent IC50 by K3Cit ([1]; GRK5 phosphorylation of tubulin, 2 mM K3Cit): eightfold; IC50 ([1]; IC50 (no K3Cit), substrate Rho* in ROS, without K3Cit, mean and SD): 4.5 ± 0.5 µM; IC50 ([1]; IC50 (no K3Cit), substrate tubulin, without K3Cit, mean and SD): 11 ± 3 µM; increase of potency of inhibition by K3Cit ([1]; tubulin and receptor Rho* phosphorylation): ~8 fold
6 | [Cl-].[Na+] [NaCl] | – | – | – | −1.2 | 21000 ± 2000 µM | decreased | reduced it | −1.3 | 8000 ± 7000 µM | –
7 | O.O=C([O-])CC(O)(CC(=O)[O-])C(=O)[O-].[K+].[K+].[K+] [K3Cit, potassium citrate tribasic monohydrate] | – | – | – | −1.3 | 800 ± 500 µM | biphasic behavior | raised the Tm of GRK5 proportionally | −0.9 | 900 ± 500 µM | decrease of Tm of GRK5 ([2]; in the presence of ATP·Mg2+, 20 mM K3Cit): 2 to 3 °C; effect of salt on Tm of Sgv-bound GRK5 ([2]; in the presence of Sgv): further increased
8 | O=C([O-])CC(O)(CC(=O)[O-])C(=O)[O-].[Na+].[Na+].[Na+] [Na3Cit, sodium citrate] | – | – | – | −1.6 | 700 ± 200 µM | – | – | −1.2 | 1300 ± 900 µM | –

Reference: PMC12268638, “Structural insights into the catalytic cycle of G protein–coupled receptor kinase 5 and a possible regulatory site for potassium ion” (The Journal of Biological Chemistry, 2025)
